PubChem BioAssay (NCI)
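Five concentrations, 48 hours, 96-well plates. Here, GI50 denotes the concentration required for 50% inhibition of growth. At the TGI there is no net growth.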

Columns and labels:
Assay in all cases: NCI-60 cell line screen, 48 h
[1] = test system: UACC-62 melanoma
[2] = test system: SF-295 CNS
[3] = test system: UO-31 renal
[4] = test system: DU-145 prostate
[5] = test system: NCI-H460 lung
[6] = test system: PC-3 prostate
[7] = test system: IGROV1 ovarian
[8] = test system: SW-620 colon
[9] = test system: SK-MEL-28 melanoma
[10] = test system: UACC-257 melanoma

| Compound | GI50 [1] [µM] | TGI [1] [µM] | GI50 [2] [µM] | TGI [2] [µM] | GI50 [3] [µM] | TGI [3] [µM] | GI50 [4] [µM] | TGI [4] [µM] | GI50 [5] [µM] | TGI [5] [µM] | GI50 [6] [µM] | TGI [6] [µM] | GI50 [7] [µM] | TGI [7] [µM] | GI50 [8] [µM] | TGI [8] [µM] | GI50 [9] [µM] | TGI [9] [µM] | GI50 [10] [µM] | TGI [10] [µM] |
| --- | --- | --- | --- | --- | --- | --- | --- | --- | --- | --- | --- | --- | --- | --- | --- | --- | --- | --- | --- | --- |
| Nc1ncnc2c1nc(N)n2C1OC(CO)C(O)C1O (stereo not given) | 0.251 | 1.2 | 1.78 | 6.09 | 0.295 | 2.82 | 0.401 | 2.09 | 0.454 | 1.93 | 1.07 | 8.21 | 0.238 | 0.863 | 0.182 | 1.31 | 0.267 | 1.33 | 0.229 | 0.857 |
| COc1ccccc1N(C(C)=O)C1=C(Cl)C(=O)c2ccccc2C1=O | 0.502 | 2.92 | 2.38 | 6.5 | 1.03 | 2.56 | 3.46 | 12 | 3.17 | 12.2 | 1.17 | 10.8 | 2.82 | 10.3 | 1.06 | 2.55 | 2.4 | 7.03 | 2.14 | 4.39 |
| N#Cc1ccc(N2Cc3cc(Cl)ccc3OC3=C2C(=O)N(Cc2ccc(F)cc2)C3=O)cc1 | 0.537 | 1.13 | 4.65 | 14.5 | 0.436 | 0.868 | 0.662 | 1.45 | 1.02 | 3.71 | 0.8 | 2.5 | 0.804 | 2.14 | 0.411 | 1.02 | 0.558 | 1.13 | 0.556 | 1.15 |
| O=C1c2cccc3cccc(c23)C(=O)N1CC#Cc1ccc2c3c(cccc13)C(=O)N(CCN1CCNCC1)C2=O | 1.88 | 4.44 | 17.5 | 33.8 | 20.6 | 84.8 | 2.06 | 4.12 | 1.92 | 3.6 | 3.22 | 11.6 | 3.2 | 13 | 1.94 | 3.79 | 1.9 | 3.55 | 18.5 | 38.1 |
| O=[N+]([O-])c1ccc(N/N=C/c2ccccc2O)nc1 | 2.61 | 11.6 | 2.92 | > 100 | 0.623 | > 100 | 1.35 | > 100 | 1.02 | > 100 | 4.3 | > 100 | 2.7 | > 100 | 1.14 | > 100 | 4.38 | > 100 | 3.13 | 25 |
| Cc1cc(Br)c2nsnc2c1[N+](=O)[O-] | 7.13 | 20 | 2.96 | 12.1 | 2.05 | 8.23 | 1.66 | 3.09 | 3.15 | 10.7 | 4.49 | 15.8 | 1.65 | 3.62 | 2.15 | 15.1 | 3.34 | 7.67 | 3.87 | 10.9 |
| CC(=O)Nc1c(I)c(C(=O)O)c(I)c(N(C)C(C)=O)c1I | > 100 | > 100 | > 100 | > 100 | > 100 | > 100 | > 100 | > 100 | > 100 | > 100 | > 100 | > 100 | > 100 | > 100 | > 100 | > 100 | > 100 | > 100 | > 100 | > 100 |
| C[C@@H](Oc1cc(-c2cnn(C3CC4(CNC4)C3)c2)cnc1N)c1c(Cl)ccc(F)c1Cl | 3.64 | 13.8 | 1.41 | 13.6 | 4.96 | 18.3 | 5.45 | 18.1 | 1.98 | 13.7 | 2.64 | 15.6 | 6.64 | 21.5 | 1.31 | 11.9 | 1.74 | 4 | 1.79 | 4.33 |
| CCc1ccc(Oc2nccc(-c3c(-c4ccc(F)cc4)ncn3C3CCNCC3)n2)cc1 | 4.6 | 9.08 | 5.52 | 12.1 | 3.63 | 9.5 | 5.83 | 14 | 4.28 | 8.49 | 5.33 | 14.1 | 4.71 | 12.1 | 4.35 | 8.74 | 4.73 | 8.44 | 4.34 | 8.04 |
| C=C1C(=O)O[C@H]2[C@H]1CC/C(COC(=O)c1cccc3ccccc13)=C\CC[C@@]1(C)O[C@@H]21 | 1.47 | 2.94 | 2.47 | 10.2 | 1.44 | 2.76 | 1.5 | 2.86 | 2.16 | 4.84 | 1.57 | 3.14 | 1.03 | 2.79 | 1.08 | 2.87 | 1.82 | 3.64 | 1.46 | 2.83 |
| Oc1[nH]c2ccc(Cl)cc2c1/C=c1/ccc2c(c1)N=C(c1ccc(C(F)(F)F)cc1)N=2 | 1.71 | 4.06 | 1.87 | 5.04 | 2.56 | 9.81 | 3.12 | 10.4 | 1.88 | 3.82 | 2.29 | 7.58 | 3.35 | 14.2 | 1.97 | 4.1 | 2.35 | 6.71 | 2.08 | 4.93 |
| NC(Cn1ccc(=O)c(O)c1)C(=O)O (stereo not given) | – | > 100 | – | > 100 | – | > 100 | – | > 100 | – | > 100 | – | > 100 | – | > 100 | – | > 100 | – | > 100 | – | > 100 |
| O=NNc1ccc(Sc2ccc3ccccc3c2)cn1 | – | > 100 | – | > 100 | – | > 100 | – | 79.7 | – | > 100 | – | > 100 | – | > 100 | – | > 100 | – | > 100 | – | > 100 |
